Measured values: patent publication US9566240B2, “Compositions for multiphase, staggered, or sustained release of an active substance” (CLABBER GIRL CORPORATION, priority 2014, dated 2017)

How the values were obtained:
[1] = test system: composited rumen contents; experiment: In vitro ruminal incubation: dry matter, starch and neutral detergent fiber disappearance
Procedure: Each of the products was tested using in vitro ruminal incubation to determine the product's influence on ruminal pH, volatile fatty acid production in relation to changes in ruminal pH, and the associative effects of ruminal pH and volatile fatty acid on dry matter disappearance, starch disappearance, and neutral detergent fiber disappearance.
Incubation solution containing water, composited rumen contents, and Van Soest buffer was placed in 1 L-incubation vessels (1 L oval deli cup with lid and Bunsen valve). Simulated feeding bags were obtained by placing 3 g of ground (Wiley Mill, 8 mm screen) total meal rations (10% alfalfa hay, 35% corn silage, 50% corn grain, and 5% vitamin/minerals) into 5 cm×10 cm bags with a pore size of 40 microns. Product 1 was added to each of eight replicate feeding bags in an amount at 0.2273 g/L. Product 2 was added to another set of eight replicate bags in an amount of 0.3704 g/L. Product 3 was added to another set of eight replicate bags in an amount of 0.5710 g/L. Control was added to another set of eight replicate bags in an amount of 0.1 g/L. A fifth set of eight replicate bags contained just the 3g of ground total meal rations to serve as a “Blank” control.
To simulate twice-a-day-feeding, four replicates from each set of replicates were added to the incubation vessels at zero hours (0 H), and four more were added at twelve hours (12 H). The incubation vessels were placed into a temperature controlled, air jacketed, anaerobic incubator (39° C., and 20% carbon dioxide) for the duration of their assigned incubation time.
Ruminal pH was measured during each incubation time. At zero hours and twelve hours, pH was also recorded before and after the simulated feeding. Volatile fatty acid production was measured by taking 50 ml aliquots of the supernatant of each incubation vessel at 0, 2, 6, 12, 14, 18, and 24 hours, acidifying the aliquot with 5 ml of 50% HCl, and freezing it for future analysis. Dry matter disappearance, starch disappearance, and neutral detergent fiber disappearance were measured by removing replicate bags at the same hours the volatile fatty acid aliquots were taken, drying them in a forced-air oven at 60° C. to a constant weight, and storing them for future analysis.
Dry matter, starch, and neutral detergent fiber concentrations were measured at 2, 4, 6, 10, 12, 16, 18, and 22 hours of incubation. The measurements for starch disappearance and neutral detergent fiber disappearance were made at 2, 6, 16, and 22 hours of incubation. The early times were selected to monitor the faster degradation of starch, and the later times to monitor the slower degradation of neutral detergent fiber. […]

[2] = test system: composited rumen contents; experiment: In vitro ruminal incubation: ruminal pH; details: over a 24 hour feeding cycle
Procedure: Each of the products was tested using in vitro ruminal incubation to determine the product's influence on ruminal pH, volatile fatty acid production in relation to changes in ruminal pH, and the associative effects of ruminal pH and volatile fatty acid on dry matter disappearance, starch disappearance, and neutral detergent fiber disappearance. Incubation solution containing water, composited rumen contents, and Van Soest buffer was placed in 1 L-incubation vessels (1 L oval deli cup with lid and Bunsen valve). Simulated feeding bags were obtained by placing 3 g of ground (Wiley Mill, 8 mm screen) total meal rations (10% alfalfa hay, 35% corn silage, 50% corn grain, and 5% vitamin/minerals) into 5 cm×10 cm bags with a pore size of 40 microns. […] Ruminal pH was measured during each incubation time. At zero hours and twelve hours, pH was also recorded before and after the simulated feeding. […] Dry matter disappearance, starch disappearance, and neutral detergent fiber disappearance were measured by removing replicate bags at the same hours the volatile fatty acid aliquots were taken, drying them in a forced-air oven at 60° C. to a constant weight, and storing them for future analysis.

[3] = test system: composited rumen contents; experiment: In vitro ruminal incubation: volatile fatty acid production
Procedure: Each of the products was tested using in vitro ruminal incubation to determine the product's influence on ruminal pH, volatile fatty acid production in relation to changes in ruminal pH, and the associative effects of ruminal pH and volatile fatty acid on dry matter disappearance, starch disappearance, and neutral detergent fiber disappearance. Incubation solution containing water, composited rumen contents, and Van Soest buffer was placed in 1 L-incubation vessels (1 L oval deli cup with lid and Bunsen valve). Simulated feeding bags were obtained by placing 3 g of ground (Wiley Mill, 8 mm screen) total meal rations (10% alfalfa hay, 35% corn silage, 50% corn grain, and 5% vitamin/minerals) into 5 cm×10 cm bags with a pore size of 40 microns. Product 1 was added to each of eight replicate feeding bags in an amount at 0.2273 g/L. Product 2 was added to another set of eight replicate bags in an amount of 0.3704 g/L. Product 3 was added to another set of eight replicate bags in an amount of 0.5710 g/L. Control was added to another set of eight replicate bags in an amount of 0.1 g/L. A fifth set of eight replicate bags contained just the 3g of ground total meal rations to serve as a “Blank” control. To simulate twice-a-day-feeding, four replicates from each set of replicates were added to the incubation vessels at zero hours (0 H), and four more were added at twelve hours (12 H). The incubation vessels were placed into a temperature controlled, air jacketed, anaerobic incubator (39° C., and 20% carbon dioxide) for the duration of their assigned incubation time. Ruminal pH was measured during each incubation time. At zero hours and twelve hours, pH was also recorded before and after the simulated feeding. […] Dry matter disappearance, starch disappearance, and neutral detergent fiber disappearance were measured by removing replicate bags at the same hours the volatile fatty acid aliquots were taken, drying them in a forced-air oven at 60° C. to a constant weight, and storing them for future analysis. […] The first feeding was monitored for 12 hours (2, 6, and 12). Then the second feeding was monitored at 14 and 18 hours which corresponded to the 2 and 6 hours post-feeding.

[4] = in vitro incubation, at the two peaks of 2 and 14 hours
[5] = in vitro incubation, overall values at 18 hours

O=C([O-])O.[Na+] [Control, sodium bicarbonate]
dry matter disappearance ([1]; first 11 hours of the feeding cycle): little dry matter disappearance
dry matter disappearance ([1]; in vitro incubations, FIG. 8): best results
starch disappearance ([1]; in vitro incubations, FIG. 9): best results
neutral detergent fiber disappearance ([1]; in vitro incubations, FIG. 10): higher neutral detergent fiber disappearance over Products 1, 2, and 3, and Blank
buffering of rumen pH [2]: only a “flash” neutralization that was soon dissipated
total volatile fatty acids concentration ([3]; at 18 H, after the second feeding (12 H), FIG. 4): higher concentration at 18 H compared to that of Product 2
ratio of even- to odd-numbered carbon chain VFAs, overall assessment ([3]; from Table 3, high total VFA plus high propionic acid without decrease in acetic acid): superior to the other treatments
A:P Peaks (acetic acid to propionic acid ratio at peak concentrations) [3, 4]: 8.30
AB:P Peaks (sum of acetic and butyric acid to propionic acid ratio at peak concentrations) [3, 4]: 9.39
A:P (acetic acid to propionic acid ratio) [3, 5]: 11.61
AB:P (sum of acetic acid and butyric acid to propionic acid ratio) [3, 5]: 12.50
